{"source": "paper PMC3202968", "about": "(Journal of the American Chemical Society, 2010)", "origin": "cited, not measured here", "data": [{"smiles": "Cc1cc(C)nc(N)c1", "note": "[2-amino-4,6-dimethylpyridine]", "values": [{"measurement": "pKa", "result": "about 7.1"}]}]}
